Experimental data as given in US20120149080A1, “YEAST PRODUCTION CULTURE FOR THE PRODUCTION OF BUTANOL” (Butamax(TM) Advanced Biofuels LLC, priority 2010, published 2012).

Key:
Assay in all cases: 24 h survival (CFU) of non-Saccharomyces yeast, HCD/LCD
Assay type in all cases: cell-based
Conditions in all cases: for Percent Survival HCD: high cell density; for Percent Survival LCD: low cell density
[1] = system: Kluyveromyces marxianus PNY0577
Method: (§1) Non-Saccharomyces yeast strains were tested to determine whether isobutanol tolerance is affected by cell density for these yeasts. Kluyveromyces marxianus PNY0577 (American Type Culture Collection (“ATCC”), Manassas, Va.; ATCC #8554), Kluyveromyces marxians PNY0578 (ATCC #16045), Pichia membranifaciens PNY0572, Pichia anomala PNY0573, Pichia sp. PNY0574, Issatchenkia orientalis PNY0575 and Issatchenkia orientalis PNY0576 were tested. The Pichia and Issatchenkia strains used are wild-type representatives of the designated genera. Other representative strains are commercially available, for example, from ATCC.
(§2) The non-Saccharomyces yeast strains were plated from freezer vials onto YPD agar (Teknova, Hollister, Calif.) and incubated overnight at 30° C. Cells from each strain from the YPD plates were inoculated into a 25 ml pre-culture of YPD broth) (Teknova, Hollister, Calif.) with an initial OD600 of 0.06 to 0.08 and grown for 7 hours in an aerobic shaker at 30° C. An aliquot of each pre-culture was inoculated into 200 ml YPD broth, to provide an initial OD600 of 0.06 to 0.08 and the resulting culture was incubated with aeration at 30° C. for approximately 17 hours. The optical density of the culture was measured, the culture was centrifuged and the cells were resuspended to yield an OD600 of 5 in fresh YPD broth. This is referred to as a high cell density (HCD) culture. This culture was diluted 100 fold into fresh YPD broth to give a culture with an OD600 of 0.05. This is referred to as a low cell density (LCD) culture. These cultures were incubated at 30° C. with shaking for 30 minutes for an acclimation period. At the end of the 30 minute acclimation period, the OD600 was measured.
(§3) 5 ml of low or high cell density culture was dispensed to 15 ml conical tubes which contained the concentrations of isobutanol to be tested. The tubes were placed in a rotary drum at 30° C. and incubated for 24 hours. The isobutanol concentration was 1.0% or 2.0%. A control culture for each strain contained no isobutanol. The time of addition of cells was “time 0”. […] All samples were filtered with Acrodisc CR PTFE 0.2 μm filters (Pall Life Sciences, Port Washington, N.Y.) and analyzed using a Shodex SH1011 column (8 mm ID×300 mm length; Showa Denko America, Inc., New York, N.Y.) and a Shodex SH-G as a guard column. The injection volume was 10 μL. The mobile phase was 0.01N sulfuric acid. The column temperature was 50° C. with a mobile phase flow rate of 0.5 mL/min. For detection, a photometric detector at 210 nm and a refractive index detector were used.
(§4) Colony forming units (CFUs) were determined on YPD plates at time 0 for the controls and at 24 hours for all samples, including the control cultures, using standard microbiological methods. Essentially, cells were serially diluted in a microtiter plate (20 μl of the culture and 180 μl of YPD broth) and 10 μl of the various dilutions were spotted onto triplicate agar plates and incubated at 30° C. for 24 and 48 hours. Colonies were counted after 48 hours and CFUs/ml were calculated. The percent survival was calculated based on the CFUs/ml of the 24 hour HCD or LCD control culture for each strain and results are given in Table 3.

Pichia anomala PNY0573 = system: Pichia anomala PNY0573
Method: as §1, §2, §3, §4

[2] = system: Issatchenkia orientalis PNY0576
Method: as §1, §2, §3, §4

[3] = system: Pichia membranifaciens PNY0572
Method: as §1, §2, §3, §4

[4] = system: Kluyveromyces marxianus PNY0578
Method: as §1, §2, §3, §4

[5] = system: Issatchenkia orientalis PNY0575
Method: as §1, §2, §3, §4

Pichia sp. PNY0574 = system: Pichia sp. PNY0574
Method: as §1, §2, §3, §4

Structure (SMILES): CC(C)CO [Isobutanol, isobutanol]
- Percent Survival HCD ([1]; PNY0577, 1% isobutanol): 39.5%
- Percent Survival LCD ([1]; PNY0577, 1% isobutanol): 0.1%
- Percent Survival HCD ([1]; PNY0577, 2% isobutanol): <0.001%
- Percent Survival LCD ([1]; PNY0577, 2% isobutanol): <0.001%
- Percent Survival HCD (Pichia anomala PNY0573; PNY0573, 1% isobutanol): 75.6%
- Percent Survival LCD (Pichia anomala PNY0573; PNY0573, 1% isobutanol): 0.1%
- Percent Survival HCD (Pichia anomala PNY0573; PNY0573, 2% isobutanol): <0.001%
- Percent Survival LCD (Pichia anomala PNY0573; PNY0573, 2% isobutanol): <0.001%
- Percent Survival HCD ([2]; PNY0576, 1% isobutanol): 50%
- Percent Survival LCD ([2]; PNY0576, 1% isobutanol): 12.8%
- Percent Survival HCD ([2]; PNY0576, 2% isobutanol): <0.001%
- Percent Survival LCD ([2]; PNY0576, 2% isobutanol): <0.001%
- Percent Survival HCD ([3]; PNY0572, 1% isobutanol): 80.6%
- Percent Survival LCD ([3]; PNY0572, 1% isobutanol): 2.7%
- Percent Survival HCD ([3]; PNY0572, 2% isobutanol): <0.001%
- Percent Survival LCD ([3]; PNY0572, 2% isobutanol): <0.001%
- Percent Survival HCD ([4]; PNY0578, 1% isobutanol): 51%
- Percent Survival LCD ([4]; PNY0578, 1% isobutanol): <0.001%
- Percent Survival HCD ([4]; PNY0578, 2% isobutanol): <0.001%
- Percent Survival LCD ([4]; PNY0578, 2% isobutanol): <0.001%
- Percent Survival HCD ([5]; PNY0575, 1% isobutanol): 61.3%
- Percent Survival LCD ([5]; PNY0575, 1% isobutanol): 3.1%
- Percent Survival HCD ([5]; PNY0575, 2% isobutanol): <0.001%
- Percent Survival LCD ([5]; PNY0575, 2% isobutanol): <0.001%
- Percent Survival HCD (Pichia sp. PNY0574; PNY0574, 1% isobutanol): 100%
- Percent Survival LCD (Pichia sp. PNY0574; PNY0574, 1% isobutanol): 10%
- Percent Survival HCD (Pichia sp. PNY0574; PNY0574, 2% isobutanol): 100%
- Percent Survival LCD (Pichia sp. PNY0574; PNY0574, 2% isobutanol): 0.5%
